Measured values as given in ChEMBL document CHEMBL1201862, “PubChem BioAssay data set” (2004).
Active and inactive are the calls of the source.

Key:
[1] = biological target: T1, Ubiquitin-conjugating enzyme E2 N (Homo sapiens, UniProt P61088); format: functional;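 note: Dose-response confirmation in a TR-FRET assay detecting UBC13-driven polyubiquitin chain formation, inhibition measured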
T1 sequence (P61088 whole entry): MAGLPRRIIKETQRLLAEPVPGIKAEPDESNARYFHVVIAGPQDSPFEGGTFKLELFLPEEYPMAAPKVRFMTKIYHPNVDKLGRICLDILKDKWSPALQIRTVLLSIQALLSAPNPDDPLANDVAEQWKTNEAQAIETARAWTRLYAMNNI

[2] = HEp-2 cell cytotoxicity, dose response, cytotoxicity control for RSV inhibitor project, HTS (AID 2410); format: functional; settings: human respiratory syncytial virus
[3] = cells
[4] = biological target: Cytochrome P450 3A4 (Homo sapiens, UniProt P08684); settings: Potency;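 note: confirmatory qHTS run detecting inhibitors and substrates of CYP3A4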
Cytochrome P450 3A4, sequence (P08684 whole entry): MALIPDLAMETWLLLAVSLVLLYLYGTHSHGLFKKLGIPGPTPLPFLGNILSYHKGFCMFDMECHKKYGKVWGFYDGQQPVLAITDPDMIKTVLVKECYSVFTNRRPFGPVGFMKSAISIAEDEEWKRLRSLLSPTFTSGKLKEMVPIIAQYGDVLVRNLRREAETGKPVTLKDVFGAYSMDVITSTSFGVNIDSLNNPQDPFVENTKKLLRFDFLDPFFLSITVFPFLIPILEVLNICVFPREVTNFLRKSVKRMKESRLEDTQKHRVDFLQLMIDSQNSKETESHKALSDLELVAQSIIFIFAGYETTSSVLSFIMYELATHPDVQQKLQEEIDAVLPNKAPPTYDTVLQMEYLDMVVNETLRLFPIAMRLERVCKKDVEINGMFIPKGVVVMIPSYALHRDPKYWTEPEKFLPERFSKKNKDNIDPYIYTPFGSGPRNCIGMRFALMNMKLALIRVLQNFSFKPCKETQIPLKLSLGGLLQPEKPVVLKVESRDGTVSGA

[5] = biological target: T2, Leucine aminopeptidase (Plasmodium falciparum 3D7, UniProt Q8IL11); assay: P. falciparum M17LAP inhibitors, primary screen, biochemical, fluorogenic H-Leu-NHMec substrate, 1536-well (AID 1619); format: functional
T2 sequence (Q8IL11 whole entry): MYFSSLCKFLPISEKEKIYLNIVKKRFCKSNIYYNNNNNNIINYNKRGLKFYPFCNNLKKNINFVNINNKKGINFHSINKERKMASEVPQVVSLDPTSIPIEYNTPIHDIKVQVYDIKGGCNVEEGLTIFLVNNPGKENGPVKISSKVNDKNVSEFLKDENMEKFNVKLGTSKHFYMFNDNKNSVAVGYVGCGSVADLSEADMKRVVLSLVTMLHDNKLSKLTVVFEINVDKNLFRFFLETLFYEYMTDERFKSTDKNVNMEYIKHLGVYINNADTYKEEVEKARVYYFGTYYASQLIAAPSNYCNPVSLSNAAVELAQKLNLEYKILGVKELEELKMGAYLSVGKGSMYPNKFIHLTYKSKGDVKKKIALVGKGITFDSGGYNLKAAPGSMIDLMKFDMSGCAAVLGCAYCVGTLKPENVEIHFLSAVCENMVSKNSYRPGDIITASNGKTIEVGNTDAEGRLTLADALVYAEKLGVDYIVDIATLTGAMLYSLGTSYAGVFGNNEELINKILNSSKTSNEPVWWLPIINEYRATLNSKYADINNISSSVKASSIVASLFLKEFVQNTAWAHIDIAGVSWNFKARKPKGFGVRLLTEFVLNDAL

[6] = biological target: T3, Aminopeptidase N (Plasmodium falciparum FcB1/Columbia, UniProt O96935); assay: P. falciparum M1AAP inhibitors, biochemical, fluorogenic H-Leu-NHMec substrate, 1536-well (AID 1445); set-up: species or system Plasmodium falciparum 3D7, 3D7
T3 sequence (O96935 whole entry): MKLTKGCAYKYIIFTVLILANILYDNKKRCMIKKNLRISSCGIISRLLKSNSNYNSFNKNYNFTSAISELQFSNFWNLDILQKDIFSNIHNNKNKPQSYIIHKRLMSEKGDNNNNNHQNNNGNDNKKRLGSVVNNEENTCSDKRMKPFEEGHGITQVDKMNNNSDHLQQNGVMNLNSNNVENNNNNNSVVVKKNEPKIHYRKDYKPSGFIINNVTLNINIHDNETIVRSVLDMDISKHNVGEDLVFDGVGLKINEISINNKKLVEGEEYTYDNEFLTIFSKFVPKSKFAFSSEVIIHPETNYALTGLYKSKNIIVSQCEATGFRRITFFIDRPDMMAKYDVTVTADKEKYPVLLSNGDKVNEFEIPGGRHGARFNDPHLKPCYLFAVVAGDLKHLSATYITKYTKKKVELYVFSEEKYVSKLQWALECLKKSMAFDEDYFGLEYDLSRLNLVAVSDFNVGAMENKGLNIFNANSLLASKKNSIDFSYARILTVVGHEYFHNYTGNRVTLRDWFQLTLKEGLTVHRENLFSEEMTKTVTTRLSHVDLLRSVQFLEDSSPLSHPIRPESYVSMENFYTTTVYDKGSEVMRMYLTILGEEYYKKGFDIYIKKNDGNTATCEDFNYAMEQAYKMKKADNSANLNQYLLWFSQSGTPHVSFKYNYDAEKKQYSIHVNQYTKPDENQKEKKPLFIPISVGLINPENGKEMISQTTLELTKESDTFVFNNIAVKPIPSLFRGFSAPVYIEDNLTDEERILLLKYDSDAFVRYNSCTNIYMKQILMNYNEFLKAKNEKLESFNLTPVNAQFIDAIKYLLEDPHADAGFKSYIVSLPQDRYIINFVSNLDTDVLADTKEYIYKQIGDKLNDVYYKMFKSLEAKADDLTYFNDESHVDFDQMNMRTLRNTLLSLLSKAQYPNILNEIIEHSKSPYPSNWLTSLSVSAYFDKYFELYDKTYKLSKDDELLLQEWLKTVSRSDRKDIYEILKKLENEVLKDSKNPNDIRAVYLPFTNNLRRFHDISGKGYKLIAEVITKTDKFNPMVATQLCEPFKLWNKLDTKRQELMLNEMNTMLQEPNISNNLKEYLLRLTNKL

[7] = biological target: Glyceraldehyde-3-phosphate dehydrogenase (Homo sapiens, UniProt P04406)
Glyceraldehyde-3-phosphate dehydrogenase, sequence (P04406 whole entry): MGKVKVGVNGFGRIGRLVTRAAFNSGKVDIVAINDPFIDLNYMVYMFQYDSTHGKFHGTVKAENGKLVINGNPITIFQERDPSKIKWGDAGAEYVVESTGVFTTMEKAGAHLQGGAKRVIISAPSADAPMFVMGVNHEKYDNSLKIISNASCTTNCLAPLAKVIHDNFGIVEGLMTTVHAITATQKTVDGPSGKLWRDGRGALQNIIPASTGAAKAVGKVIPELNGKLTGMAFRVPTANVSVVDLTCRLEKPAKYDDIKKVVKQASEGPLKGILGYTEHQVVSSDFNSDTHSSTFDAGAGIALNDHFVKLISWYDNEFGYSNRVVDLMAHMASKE

[8] = biological target: T4, Replicative DNA helicase DnaB (Mycobacterium tuberculosis, UniProt P9WMR3); assay: DnaB intein splicing inhibitors, dose response, biochemical, cell-free fluorescence (AID 449749); format: functional
T4 sequence (P9WMR3 whole entry): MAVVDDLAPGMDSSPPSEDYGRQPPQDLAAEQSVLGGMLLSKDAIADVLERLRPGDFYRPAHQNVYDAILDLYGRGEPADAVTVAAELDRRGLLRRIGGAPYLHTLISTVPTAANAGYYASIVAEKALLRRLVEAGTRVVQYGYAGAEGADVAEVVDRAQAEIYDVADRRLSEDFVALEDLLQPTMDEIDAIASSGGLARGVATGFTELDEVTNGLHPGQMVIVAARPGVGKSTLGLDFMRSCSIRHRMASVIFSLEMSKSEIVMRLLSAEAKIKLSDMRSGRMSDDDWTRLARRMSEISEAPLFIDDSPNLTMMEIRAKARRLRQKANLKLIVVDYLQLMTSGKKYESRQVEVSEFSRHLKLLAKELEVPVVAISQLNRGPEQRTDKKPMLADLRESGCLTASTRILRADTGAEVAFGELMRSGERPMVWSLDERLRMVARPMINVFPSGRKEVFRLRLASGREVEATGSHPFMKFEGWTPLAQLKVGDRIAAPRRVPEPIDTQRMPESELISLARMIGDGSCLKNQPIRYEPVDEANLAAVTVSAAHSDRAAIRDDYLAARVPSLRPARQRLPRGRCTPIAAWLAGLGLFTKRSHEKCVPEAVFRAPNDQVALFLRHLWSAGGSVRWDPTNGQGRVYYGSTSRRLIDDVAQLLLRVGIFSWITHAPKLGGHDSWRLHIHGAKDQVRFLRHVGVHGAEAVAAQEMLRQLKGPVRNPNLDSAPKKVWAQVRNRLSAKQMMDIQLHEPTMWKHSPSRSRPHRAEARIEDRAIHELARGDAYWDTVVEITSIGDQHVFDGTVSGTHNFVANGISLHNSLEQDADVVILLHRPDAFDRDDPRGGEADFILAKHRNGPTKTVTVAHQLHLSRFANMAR

[9] = biological target: T5, Protein RecA (Mycobacterium tuberculosis, UniProt P9WHJ3); assay: Fluorescence Cell-Free Homogeneous Dose Retest to Identify Inhibitors of RecA-Intein Splicing Activity. [Related pubchem assays (depositor defined):AID2097, AID2223, AID489010, AID492950]; format: functional
T5 sequence (P9WHJ3 whole entry): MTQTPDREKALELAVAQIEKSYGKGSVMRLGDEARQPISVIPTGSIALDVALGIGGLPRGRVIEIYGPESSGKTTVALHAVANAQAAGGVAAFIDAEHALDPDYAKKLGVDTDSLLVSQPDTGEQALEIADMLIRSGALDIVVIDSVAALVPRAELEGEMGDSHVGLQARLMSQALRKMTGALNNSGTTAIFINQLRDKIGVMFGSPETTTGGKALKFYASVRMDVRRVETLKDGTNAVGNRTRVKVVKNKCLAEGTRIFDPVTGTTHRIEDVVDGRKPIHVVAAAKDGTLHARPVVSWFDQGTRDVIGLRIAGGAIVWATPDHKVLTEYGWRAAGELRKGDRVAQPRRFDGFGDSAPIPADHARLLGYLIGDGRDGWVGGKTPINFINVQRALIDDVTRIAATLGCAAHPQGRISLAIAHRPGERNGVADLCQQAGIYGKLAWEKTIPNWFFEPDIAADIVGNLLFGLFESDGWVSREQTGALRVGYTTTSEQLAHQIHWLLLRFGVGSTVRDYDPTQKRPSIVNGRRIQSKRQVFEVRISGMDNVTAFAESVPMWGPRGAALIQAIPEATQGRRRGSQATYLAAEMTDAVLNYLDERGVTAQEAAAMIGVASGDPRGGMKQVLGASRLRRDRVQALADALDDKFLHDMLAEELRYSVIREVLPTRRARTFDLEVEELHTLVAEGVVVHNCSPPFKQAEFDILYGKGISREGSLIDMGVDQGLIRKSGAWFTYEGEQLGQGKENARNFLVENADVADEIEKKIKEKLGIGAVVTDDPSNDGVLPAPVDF

[10] = microbe, parasite or virus in culture; format: functional; settings: Mycobacterium tuberculosis
[11] = cells; format: functional
[12] = biological target: T6, Voltage-gated N-type calcium channel alpha-1B subunit/Amyloid beta A4 precursor protein-binding family A member 1 (Homo sapiens, UniProt Q00975+Q02410); format: protein assay
T6 sequence (Q00975 whole entry): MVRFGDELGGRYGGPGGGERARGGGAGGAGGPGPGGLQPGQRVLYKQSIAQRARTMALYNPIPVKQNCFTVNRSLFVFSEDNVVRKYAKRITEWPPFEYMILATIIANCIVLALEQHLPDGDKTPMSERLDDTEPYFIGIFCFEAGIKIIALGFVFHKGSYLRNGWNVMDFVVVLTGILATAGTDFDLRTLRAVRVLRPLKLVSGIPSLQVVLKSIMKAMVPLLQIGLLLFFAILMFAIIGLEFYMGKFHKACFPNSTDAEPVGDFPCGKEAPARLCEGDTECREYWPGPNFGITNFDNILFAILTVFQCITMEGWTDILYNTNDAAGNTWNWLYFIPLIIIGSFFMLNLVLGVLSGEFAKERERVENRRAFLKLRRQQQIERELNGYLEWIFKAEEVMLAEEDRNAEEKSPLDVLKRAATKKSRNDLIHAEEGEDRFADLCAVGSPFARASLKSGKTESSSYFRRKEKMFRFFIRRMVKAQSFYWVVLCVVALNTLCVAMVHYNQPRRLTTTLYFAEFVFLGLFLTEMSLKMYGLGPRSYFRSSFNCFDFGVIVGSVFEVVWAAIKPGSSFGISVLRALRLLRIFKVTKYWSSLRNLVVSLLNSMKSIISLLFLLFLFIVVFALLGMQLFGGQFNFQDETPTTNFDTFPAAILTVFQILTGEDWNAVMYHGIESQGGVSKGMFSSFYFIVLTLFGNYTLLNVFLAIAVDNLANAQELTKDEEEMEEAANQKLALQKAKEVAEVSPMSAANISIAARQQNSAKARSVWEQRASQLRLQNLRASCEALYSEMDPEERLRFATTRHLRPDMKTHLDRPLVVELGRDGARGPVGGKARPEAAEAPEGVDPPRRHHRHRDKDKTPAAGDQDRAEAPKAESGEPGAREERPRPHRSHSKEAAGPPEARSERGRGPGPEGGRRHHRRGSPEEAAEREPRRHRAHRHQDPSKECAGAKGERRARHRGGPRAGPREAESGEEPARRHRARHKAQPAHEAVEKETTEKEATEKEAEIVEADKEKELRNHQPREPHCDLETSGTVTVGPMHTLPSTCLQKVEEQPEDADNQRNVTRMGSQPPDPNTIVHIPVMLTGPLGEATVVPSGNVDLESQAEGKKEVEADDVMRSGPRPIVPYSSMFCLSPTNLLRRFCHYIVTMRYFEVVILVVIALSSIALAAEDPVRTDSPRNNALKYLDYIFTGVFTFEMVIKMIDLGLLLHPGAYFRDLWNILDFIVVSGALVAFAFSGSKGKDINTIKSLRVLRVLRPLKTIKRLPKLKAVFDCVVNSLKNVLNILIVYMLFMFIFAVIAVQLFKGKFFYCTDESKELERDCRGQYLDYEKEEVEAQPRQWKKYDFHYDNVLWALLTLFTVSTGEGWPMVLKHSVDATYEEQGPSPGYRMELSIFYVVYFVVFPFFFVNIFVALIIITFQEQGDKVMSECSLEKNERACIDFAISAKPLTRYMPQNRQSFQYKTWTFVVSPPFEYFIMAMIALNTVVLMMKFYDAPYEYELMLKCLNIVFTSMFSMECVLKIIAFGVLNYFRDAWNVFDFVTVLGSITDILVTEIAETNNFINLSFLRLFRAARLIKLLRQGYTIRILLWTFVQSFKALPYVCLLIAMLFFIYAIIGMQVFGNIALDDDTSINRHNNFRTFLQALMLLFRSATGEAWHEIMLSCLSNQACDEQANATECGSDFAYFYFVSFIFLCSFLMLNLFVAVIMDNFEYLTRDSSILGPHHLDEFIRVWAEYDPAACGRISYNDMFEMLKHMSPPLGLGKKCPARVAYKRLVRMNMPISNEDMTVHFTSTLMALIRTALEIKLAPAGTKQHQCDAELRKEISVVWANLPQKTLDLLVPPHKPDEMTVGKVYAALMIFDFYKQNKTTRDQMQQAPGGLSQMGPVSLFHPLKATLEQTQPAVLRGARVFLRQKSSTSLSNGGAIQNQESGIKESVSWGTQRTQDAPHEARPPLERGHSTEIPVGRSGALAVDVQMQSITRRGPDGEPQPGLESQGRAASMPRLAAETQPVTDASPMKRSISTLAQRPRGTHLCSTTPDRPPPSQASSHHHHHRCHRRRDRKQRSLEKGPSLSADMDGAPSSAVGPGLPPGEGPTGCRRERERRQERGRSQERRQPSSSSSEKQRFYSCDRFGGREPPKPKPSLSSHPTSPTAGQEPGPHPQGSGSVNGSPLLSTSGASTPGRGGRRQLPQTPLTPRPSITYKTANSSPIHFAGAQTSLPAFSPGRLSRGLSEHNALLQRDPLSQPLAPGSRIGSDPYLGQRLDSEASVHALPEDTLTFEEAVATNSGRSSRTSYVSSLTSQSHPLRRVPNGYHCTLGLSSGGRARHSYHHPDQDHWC
T6 sequence (Q02410 whole entry): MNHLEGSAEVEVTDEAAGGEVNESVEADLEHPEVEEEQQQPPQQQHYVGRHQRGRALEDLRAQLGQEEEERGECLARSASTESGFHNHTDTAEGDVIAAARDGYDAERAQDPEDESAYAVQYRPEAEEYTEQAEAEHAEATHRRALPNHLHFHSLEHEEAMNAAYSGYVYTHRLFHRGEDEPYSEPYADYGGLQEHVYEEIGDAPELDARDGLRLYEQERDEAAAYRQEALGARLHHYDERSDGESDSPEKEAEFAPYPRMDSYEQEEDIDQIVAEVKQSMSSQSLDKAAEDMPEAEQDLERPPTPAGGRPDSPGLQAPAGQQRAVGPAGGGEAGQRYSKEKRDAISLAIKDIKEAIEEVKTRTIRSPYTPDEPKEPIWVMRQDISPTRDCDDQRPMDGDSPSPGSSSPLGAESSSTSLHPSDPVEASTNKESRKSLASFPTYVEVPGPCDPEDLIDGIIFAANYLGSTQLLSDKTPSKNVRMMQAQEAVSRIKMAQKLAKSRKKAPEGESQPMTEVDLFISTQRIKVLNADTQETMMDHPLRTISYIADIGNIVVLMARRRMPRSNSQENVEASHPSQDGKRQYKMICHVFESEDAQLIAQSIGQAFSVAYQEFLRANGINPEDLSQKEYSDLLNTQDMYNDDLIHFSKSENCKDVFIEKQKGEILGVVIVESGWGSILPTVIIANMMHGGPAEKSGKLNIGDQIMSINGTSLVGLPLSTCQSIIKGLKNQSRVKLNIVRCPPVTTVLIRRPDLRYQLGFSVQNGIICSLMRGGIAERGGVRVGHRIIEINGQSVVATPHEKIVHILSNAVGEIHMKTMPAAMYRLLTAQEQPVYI

[13] = biological target: T6, Voltage-gated N-type calcium channel alpha-1B subunit/Amyloid beta A4 precursor protein-binding family A member 1; format: protein assay; remark: listed apart in the source
[14] = system: Vero; assay: cells; format: functional; settings: Chlorocebus sabaeus
[15] = system: HEK293; assay: NOD1 signaling inhibitors, primary screen, cell-based, luminescence, uHTS (AID 1578); format: functional; settings: Homo sapiens
[16] = system: HEK293; assay: cells; format: functional, cell-based; settings: Homo sapiens
[17] = system: HEK293; assay: cells; format: functional, cell-based; settings: Homo sapiens; remark: listed apart in the source
[18] = biological target: Nucleotide-binding oligomerization domain-containing protein 2 (Homo sapiens, UniProt Q9HC29); assay: NOD2 signaling inhibitors, cell-based, luminescence, uHTS, HEK293 (AID 1566); format: functional
Nucleotide-binding oligomerization domain-containing protein 2, sequence (Q9HC29 whole entry, the tested form may be a part): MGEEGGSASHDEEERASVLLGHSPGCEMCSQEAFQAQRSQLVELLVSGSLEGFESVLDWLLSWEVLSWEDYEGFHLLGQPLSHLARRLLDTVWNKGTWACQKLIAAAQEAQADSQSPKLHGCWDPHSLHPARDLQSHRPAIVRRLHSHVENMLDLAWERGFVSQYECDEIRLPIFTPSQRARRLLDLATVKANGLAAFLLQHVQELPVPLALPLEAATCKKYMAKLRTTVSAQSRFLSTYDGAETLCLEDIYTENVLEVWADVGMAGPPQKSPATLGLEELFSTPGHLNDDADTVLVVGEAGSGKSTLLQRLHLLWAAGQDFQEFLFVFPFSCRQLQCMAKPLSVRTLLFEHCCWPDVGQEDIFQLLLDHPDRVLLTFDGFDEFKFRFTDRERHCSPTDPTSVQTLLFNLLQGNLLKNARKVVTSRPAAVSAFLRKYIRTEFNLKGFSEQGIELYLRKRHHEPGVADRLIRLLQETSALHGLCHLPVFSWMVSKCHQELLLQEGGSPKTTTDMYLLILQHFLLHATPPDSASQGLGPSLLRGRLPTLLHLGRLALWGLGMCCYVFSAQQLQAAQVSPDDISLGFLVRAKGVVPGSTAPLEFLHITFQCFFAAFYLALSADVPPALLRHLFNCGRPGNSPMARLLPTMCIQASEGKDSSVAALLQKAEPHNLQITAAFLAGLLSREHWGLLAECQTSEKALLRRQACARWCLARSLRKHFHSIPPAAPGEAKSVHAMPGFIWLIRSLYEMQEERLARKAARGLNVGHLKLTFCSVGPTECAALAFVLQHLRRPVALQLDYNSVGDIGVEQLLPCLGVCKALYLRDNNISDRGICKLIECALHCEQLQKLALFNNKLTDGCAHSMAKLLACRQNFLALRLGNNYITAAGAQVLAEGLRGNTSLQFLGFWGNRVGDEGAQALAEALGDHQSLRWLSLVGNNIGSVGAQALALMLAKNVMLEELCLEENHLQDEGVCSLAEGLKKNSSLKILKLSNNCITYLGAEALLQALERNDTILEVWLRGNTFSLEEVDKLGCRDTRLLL

[19] = system: HEK293; assay: NOD2 signaling inhibitors in MDP-stimulated cells, cell-based, uHTS, luminescence (AID 2001); format: functional; settings: Homo sapiens
[20] = system: HEK293; assay: cells; format: functional, cell-based; settings: Homo sapiens; remark: listed apart in the source

With `COc1ccccc1NC(=O)c1cc(S(=O)(=O)NCc2ccccc2)ccc1F` the IC50 [1] was > 20 µM (inactive).
For `COc1ccc(-n2c(C)cc(/C=C3\C(=N)N4N=C(CC(=O)N5CCOCC5)SC4=NC3=O)c2C)c(OC)c1`, the CC50 [2] was 11.1 µM (active) and the IC50 [3] was 11.7 µM (active).
With `Cc1cc(C)cc(N(C(=O)c2snc(C(N)=O)c2N)C(C(=O)NCC2CCCO2)c2cccs2)c1` (stereo not given) the IC50 [1] was > 20 µM (inactive).
For `COc1ccc(C(=O)CC(=O)c2c(O)cc(OC)cc2OC)cc1`, the AC50 [4] was 3.98 µM (inconclusive).
In the case of `C=CCSc1nnc(NC(=O)c2nc(SCC)ncc2Cl)s1`, the IC50 [5] is reported as 10.8 µM (active) and the IC50 [6] is reported as 94.3 µM (active).
In the case of `O=C1C(Cl)=C(N2CCN(CCO)CC2)C(=O)N1c1ccc(C(F)(F)F)cc1`, the IC50 [7] is reported as > 50 µM (inconclusive).
In the case of `C/C(CC(=O)Nc1cc(C)ccn1)=N\NC(=O)COc1cccc(C)c1`, the IC50 [5] is reported as 90.2 µM (active), the AC50 [8] is reported as 2.37 µM (active) and the EC50 [9] is reported as 1.54 µM (active).
For `Oc1ccccc1-c1nnc(COc2ccccc2)o1`, the CC50 [10] was > 40 µM (active) and the IC50 [11] was 8.84 µM (active).
In the case of `CC1(C)C(O)CC[C@]2(C)C1CC[C@@]1(C)C2C(=O)C=C2[C@@H]3C[C@@](C)(C(=O)O)CC[C@@]3(C)CCC21C` (stereo not given in full), the AC50 [4] is reported as 39.8 µM (inconclusive).
With `CCN(CC)C(=O)c1cc(-c2ccc(Cl)cc2Cl)n[nH]1` the IC50 [7] was > 10 µM (inconclusive).
In the case of `COC(=O)c1cc(Nc2cc(C)c3c(O)cccc3n2)cc(C(=O)OC)c1`, the CC50 [2] is reported as 44.4 µM (active) and the IC50 [3] is reported as > 50 µM (active).
With `O=c1cc(CO)oc(C(Nc2cccc(C(F)(F)F)c2)c2ccccn2)c1O` (stereo not given) the IC50 [12] was 8.71 µM (active), the IC50 [13] was 1.09 µM (active) and the IC50 [1] was > 20 µM (inactive).
With `CCOC(=O)C1=C(COCCN)N=C(C)/C(=C(/O)OC)C1c1ccccc1Cl` (stereo not given) the IC50 [1] was > 20 µM (inactive) and the CC50 [14] was > 25 µM (active).
For `Cc1c(-c2ccc(OCc3ccccc3)cc2)nc2ccccc2c1C(=O)O`, the CC50 [2] was 42.6 µM (active) and the IC50 [3] was 24.7 µM (active).
For `Nc1nonc1-c1nc2ccccc2n1CC(=O)N/N=C/c1ccc(-c2ccccc2C(=O)O)o1`, the IC50 [5] was 73.8 µM (active) and the IC50 [6] was 82.7 µM (active).
In the case of `COc1ccccc1CNC(=O)C1CCCN1S(=O)(=O)c1cccc2cccnc12` (stereo not given), the IC50 [3] is reported as 18.6 µM (active).
In the case of `CCn1c(SCC(=O)Nc2nc(-c3ccccc3)cs2)nnc1-c1ccccc1`, the EC50 [15] is reported as 7.28 µM (active), the IC50 [16] is reported as 6.13 µM (active) and the IC50 [17] is reported as 11.3 µM (active). The EC50 [18] was 7.91 µM (active), the IC50 [19] was 5.74 µM (active) and the IC50 [20] was > 20 µM (inactive).
For `Cc1cccc2c3c(ccc12)C1=C(C(=O)C3=O)C(C)CO1` (stereo not given), the AC50 [4] was 12.6 µM (inconclusive).
With `O=C(O)CCc1nnc(SCC(=O)Nc2cccc(C(F)(F)F)c2)nc1O` the IC50 [5] was 6.64 µM (active).
